Values after ≈ are worked out from the molar mass of the structure shown. Active and inactive are the calls of the source. The rule behind the calls is not given here.
Key:
Type in all cases: functional
Cryptococcus neoformans [1] = experiment: Antifungal activity against Cryptococcus neoformans assessed as growth inhibition after 96 hr by agar dilution method
Aspergillus niger = experiment: Antifungal activity against Aspergillus niger assessed as growth inhibition after 96 hr by agar dilution method
Candida tropicalis = experiment: Antifungal activity against Candida tropicalis assessed as growth inhibition after 96 hr by agar dilution method
Escherichia coli [2] = experiment: Antibacterial activity against Escherichia coli 319 assessed as growth inhibition after 24 hr by agar dilution method
Bacillus pumilus [3] = experiment: Antibacterial activity against Bacillus pumilus 11778 assessed as growth inhibition after 24 hr by agar dilution method
Micrococcus luteus [4] = experiment: Antibacterial activity against Micrococcus luteus ATCC 9341 assessed as growth inhibition after 24 hr by agar dilution method
Staphylococcus aureus [5] = experiment: Antibacterial activity against Staphylococcus aureus 29737 assessed as growth inhibition after 24 hr by agar dilution method
Pseudomonas aeruginosa [6] = experiment: Antibacterial activity against Pseudomonas aeruginosa 71 assessed as growth inhibition after 24 hr by agar dilution method
Candida albicans [7] = experiment: Antifungal activity against Candida albicans assessed as growth inhibition after 96 hr by agar dilution method
Vibrio cholerae [8] = experiment: Antibacterial activity against Vibrio cholerae 759 assessed as growth inhibition after 24 hr by agar dilution method
Klebsiella pneumoniae [9] = experiment: Antibacterial activity against Klebsiella pneumoniae J/I/4 assessed as growth inhibition after 24 hr by agar dilution method
Shigella dysenteriae [10] = experiment: Antibacterial activity against Shigella dysenteriae 15 assessed as growth inhibition after 24 hr by agar dilution method
Micrococcus luteus [11] = experiment: Antibacterial activity against Micrococcus luteus ATCC 9341 assessed as growth inhibition at MIC after 24 hr by agar dilution method
Pseudomonas aeruginosa [12] = experiment: Antibacterial activity against Pseudomonas aeruginosa 71 assessed as growth inhibition at MIC after 24 hr by agar dilution method
Shigella dysenteriae [13] = experiment: Antibacterial activity against Shigella dysenteriae 15 assessed as growth inhibition at MIC after 24 hr by agar dilution method
Vibrio cholerae [14] = experiment: Antibacterial activity against Vibrio cholerae 759 assessed as growth inhibition at MIC after 24 hr by agar dilution method
Escherichia coli [15] = experiment: Antibacterial activity against Escherichia coli 319 assessed as growth inhibition at MIC after 24 hr by agar dilution method
Klebsiella pneumoniae [16] = experiment: Antibacterial activity against Klebsiella pneumoniae J/I/4 assessed as growth inhibition at MIC after 24 hr by agar dilution method
Bacillus pumilus [17] = experiment: Antibacterial activity against Bacillus pumilus 11778 assessed as growth inhibition at MIC after 24 hr by agar dilution method
Staphylococcus aureus [18] = experiment: Antibacterial activity against Staphylococcus aureus 29737 assessed as growth inhibition at MIC after 24 hr by agar dilution method
Candida albicans [19] = experiment: Antifungal activity against Candida albicans assessed as growth inhibition at MIC after 96 hr by agar dilution method
Cryptococcus neoformans [20] = experiment: Antifungal activity against Cryptococcus neoformans assessed as growth inhibition at MIC after 96 hr by agar dilution method
[21] = Staphylococcus aureus, 29737, 24 h
[22] = Pseudomonas aeruginosa, 71, 24 h

Row | Molecule | MIC (Cryptococcus neoformans [1]) | MIC (Aspergillus niger) | MIC (Candida tropicalis) | MIC (Escherichia coli [2]) | MIC (Bacillus pumilus [3]) | MIC (Micrococcus luteus [4]) | MIC (Staphylococcus aureus [5]) | MIC (Pseudomonas aeruginosa [6]) | MIC (Candida albicans [7]) | MIC (Vibrio cholerae [8]) | MIC (Klebsiella pneumoniae [9]) | MIC (Shigella dysenteriae [10]) | also measured
1 | Cc1ccc2cccc(OCc3ccc(COc4cccc5ccc(C)nc45)cc3)c2n1 | inactive | inactive | inactive | inactive | inactive | inactive | inactive | inactive | inactive | inactive | inactive | inactive | –
2 | Cc1ccc2cccc(OCc3cc4ccccc4cc3COc3cccc4ccc(C)nc34)c2n1 | inactive | inactive | inactive | – | – | – | – | – | inactive | – | – | – | diameter of the inhibition zone (DIZ) (Micrococcus luteus [11]): inactive; diameter of the inhibition zone (DIZ) (Pseudomonas aeruginosa [12]): inactive; MIC (Escherichia coli [2]; Escherichia coli, 319, 24 h): > 500 µg/mL; diameter of the inhibition zone (DIZ) (Shigella dysenteriae [13]): 8 mm; diameter of the inhibition zone (DIZ) (Vibrio cholerae [14]): inactive; MIC (Bacillus pumilus [3]; Bacillus pumilus, 11778, 24 h): 64 µg/mL (≈ 136 µM); MIC (Micrococcus luteus [4]; ATCC 9341, 24 h): > 1000 µg/mL; MIC (Staphylococcus aureus [5]; [21]): > 500 µg/mL; MIC (Pseudomonas aeruginosa [6]; [22]): > 500 µg/mL; diameter of the inhibition zone (DIZ) (Escherichia coli [15]): 7 mm; MIC (Vibrio cholerae [8]; Vibrio cholerae, 759, 24 h): > 500 µg/mL; MIC (Klebsiella pneumoniae [9]; J/I/4, 24 h): > 1000 µg/mL; diameter of the inhibition zone (DIZ) (Klebsiella pneumoniae [16]): inactive; diameter of the inhibition zone (DIZ) (Bacillus pumilus [17]): 6 mm; diameter of the inhibition zone (DIZ) (Staphylococcus aureus [18]): 6.1 mm; MIC (Shigella dysenteriae [10]; Shigella dysenteriae, 15, 24 h): > 500 µg/mL
3 | c1cnc2c(OCc3ccc(COc4cccc5cccnc45)cc3)cccc2c1 | inactive | inactive | inactive | inactive | inactive | inactive | inactive | inactive | inactive | inactive | inactive | inactive | diameter of the inhibition zone (DIZ) (Candida albicans [19]): inactive; diameter of the inhibition zone (DIZ) (Cryptococcus neoformans [20]): inactive
4 | GENTAMICIN | – | – | – | – | 10 µg/mL | 24 µg/mL | 1 µg/mL | 4 µg/mL | – | 2 µg/mL | 0.25 µg/mL | 2 µg/mL | inhibition zone (IZ) (Micrococcus luteus [11]): 7 mm; inhibition zone (IZ) (Shigella dysenteriae [13]): 12 mm; inhibition zone (IZ) (Vibrio cholerae [14]): 11 mm; inhibition zone (IZ) (Klebsiella pneumoniae [16]): 9 mm; inhibition zone (IZ) (Bacillus pumilus [17]): 7 mm
5 | Cc1ccc2cccc(OCc3nc4ccccc4nc3COc3cccc4ccc(C)nc34)c2n1 | inactive | inactive | inactive | inactive | inactive | inactive | inactive | inactive | inactive | inactive | inactive | inactive | –
6 | CC1(C)S[C@@H]2[C@H](NC(=O)[C@H](N)c3ccc(O)cc3)C(=O)N2[C@H]1C(=O)O [AMOXICILLIN] | – | – | – | – | – | – | – | – | – | – | – | – | diameter of the inhibition zone (DIZ) (Micrococcus luteus [11]): 11 mm; diameter of the inhibition zone (DIZ) (Pseudomonas aeruginosa [12]): 7.5 mm; MIC (Escherichia coli [2]; Escherichia coli, 319, 24 h): 4 µg/mL (≈ 10.9 µM); diameter of the inhibition zone (DIZ) (Shigella dysenteriae [13]): 9.5 mm; diameter of the inhibition zone (DIZ) (Vibrio cholerae [14]): 7 mm; MIC (Bacillus pumilus [3]; Bacillus pumilus, 11778, 24 h): 0.5 µg/mL (≈ 1.37 µM); MIC (Micrococcus luteus [4]; ATCC 9341, 24 h): 1 µg/mL (≈ 2.74 µM); MIC (Staphylococcus aureus [5]; [21]): 0.5 µg/mL (≈ 1.37 µM); MIC (Pseudomonas aeruginosa [6]; [22]): 256 µg/mL (≈ 701 µM); diameter of the inhibition zone (DIZ) (Escherichia coli [15]): 8 mm; MIC (Vibrio cholerae [8]; Vibrio cholerae, 759, 24 h): 256 µg/mL (≈ 701 µM); MIC (Klebsiella pneumoniae [9]; J/I/4, 24 h): 256 µg/mL (≈ 701 µM); diameter of the inhibition zone (DIZ) (Klebsiella pneumoniae [16]): 8 mm; diameter of the inhibition zone (DIZ) (Bacillus pumilus [17]): 10 mm; diameter of the inhibition zone (DIZ) (Staphylococcus aureus [18]): 10.5 mm; MIC (Shigella dysenteriae [10]; Shigella dysenteriae, 15, 24 h): 100 µg/mL (≈ 274 µM)
7 | Clc1ccc(OCc2ccc(COc3ccc(Cl)c4cccnc34)cc2)c2ncccc12 | inactive | inactive | inactive | inactive | inactive | inactive | inactive | inactive | inactive | inactive | inactive | inactive | –
